Where two headings read alike, the source gives them in different places.
How the values were obtained:
[1] = tested on: SARS-CoV-2 isolate MAD6 (Wuhan-Hu-1 strain); test: Virus yield inhibition in infected Calu3 2B4 cells, plaque assay on Vero E6; assay type: cell-based; details: for IC50 / SARS-CoV-2 isolate MAD6 titers: 24 hpi; for IC50: read-out: IC50, virus yield; for SARS-CoV-2 titers: at 100 μM, Fig. 3, no drug 3.±0.1 × 10^5; for SARS-CoV-2 isolate MAD6 titers: no drug 3.4 ± 1 × 10^5
HCoV-OC43 [2] = test: microbe, parasite or virus in culture; assay type: cell-based
HCoV-229E-GFP [3] = test: microbe, parasite or virus in culture; assay type: cell-based; details: for IC50: Human coronavirus 229E
in vitro [4] = details: human
in vitro [5] = details: human, CC50 (MTT assay), HCT-8
in vitro [6] = details: African green monkey
SARS-CoV-2 (MAD6) = test: Drug combination (synergy) study, virus yield in Calu3 2B4, CompuSyn; assay type: cell-based; details: for SARS-CoV-2 titers: no drug 3.2 ± 0.2 × 10^5; for average DRI: for the named drug over its combinations, at Fa = 0.5 to 0.95
[7] = tested on: SARS-CoV-2 isolate 39896362_AG (omicron strain); test: microbe, parasite or virus in culture; assay type: cell-based; details: for IC50: Severe acute respiratory syndrome coronavirus 2, Vero C1008, omicron strain, AV from 1 h before adsorption, read-out: IC50, virus yield; for IC50 / SARS-CoV-2 isolate 39896362_AG titers: Fig. 1; for SARS-CoV-2 isolate 39896362_AG titers: no drug 1 ± 0.1 × 10^5
HCoV-229E-GFP [8] = assay type: cell-based; details: no drug 3.5 ± 0.6 × 10^6
in vitro [9] = details: human, CC50 (MTT assay), Huh-7
HCoV-OC43 [10] = assay type: cell-based; details: no drug 3.2 ± 0.2 × 10^6
SARS-CoV-2 = test: Direct virucidal effect on virus particles; details: 10^5 PFU, 1 h at room temperature; LG 0 to 300 μM, VPA 0 to 300 mM
TGEV = test: Antiviral effect against TGEV in WSL or ST cells, plaque assay on ST; assay type: cell-based, swine coronavirus TGEV; details: LG in WSL cells, VPA in ST cells
Experimental: Figure S2. […] The inhibitory effect […]
of LG or VPA was assayed on triplicate cultures of TGEV-infected WSL (wild swine macrophage cell line) or ST (swine testis) cells, respectively. After 1 h-pre-incubation with AVs, triplicate cultures were infected with the corresponding virus, at a MOI of 2 PFU/cell, in a reduced volume of medium containing the AV, for 2h, virus inoculum removed and cells washed twice with medium, before the addition of drug-containing fresh medium (supplemented with 2% FBS). Cultures were then incubated for 24 h at 37 °C; total virus (intracellular and extracellular) production was evaluated by plaque assay on triplicate cultures of ST cells. Left y-axis represents infectious virus progeny at 24 hpi and right y-axis, cell viability determined by MTT assay of each corresponding cell line. IC50 values and SI values […]
[TGEV titers (PFU/ml): 1.1±0.1 x 108 in the absence of the drugs, […]
(1 picture or pasted object on this page, not shown here)

HCoV-229E-GFP [11] = test: Time of addition assay; assay type: cell-based; details: for IC50: Human coronavirus 229E, 24 hpi
[12] = tested on: SARS-CoV-2 isolate MAD6 (Wuhan-Hu-1 strain); test: Time of addition assay; assay type: cell-based; details: for IC50: 24 hpi, read-out: IC50, SARS-CoV-2 production
HCoV-229E-GFP [13] = test: Direct virucidal effect on virus particles; details: 10^5 PFU, 1 h at room temperature; LG 0 to 300 μM, VPA 0 to 300 mM
HCoV-OC43 [14] = test: Direct virucidal effect on virus particles; details: 10^5 PFU, 1 h at room temperature; LG 0 to 300 μM, VPA 0 to 300 mM
[15] = tested on: HCoV-229E, HCoV-OC43, and SARS-CoV-2; test: Antiviral assays, summary over all tested HCoVs; assay type: cell-based, human coronaviruses
HCoV-OC43 [16] = test: Time of addition assay; assay type: cell-based; details: for IC50: 48 hpi
[17] = Severe acute respiratory syndrome coronavirus 2, Calu-3 2B4, specificity experiment (Fig. 3), Calu3 2B4
[18] = at 100 μM, Fig. 3, no drug 1.8 ± 0.9 × 10^6
[19] = at 100 μM, Fig. 3, no drug 4 ± 0.9 × 10^6
[20] = Betacoronavirus 1, OC43, Huh-7, read-out: IC50, virus yield, specificity experiment (Fig. 3), Huh-7, 48 hpi
[21] = Betacoronavirus 1, OC43, Huh-7, read-out: IC50, virus yield, Huh-7, AV from 1 h before adsorption, 48 hpi, Fig. 1
[22] = Huh-7, read-out: IC50, virus yield, Huh-7, AV from 1 h before adsorption, 24 hpi, Fig. 1

For O=C(O[C@@H]1Cc2c(O)cc(O)cc2O[C@@H]1c1ccc(O)c(O)c1)c1cc(O)c(O)c(O)c1 [ECG, epicatechin gallate], the IC50 [1, 17] was 0.0501 mM and the SARS-CoV-2 titers [1] was 6 ± 0.3 × 10^4 PFU/mL.
In the case of O=C(O)c1cc(O)c(O)c(O)c1 [G, gallic acid], the “inhibition of viral multiplication at nontoxic concentrations” value (shortened to “inhibition of viral multiplication”) (HCoV-OC43 [2]; Huh-7, Fig. 3) is reported as “Neither G nor PG inhibited viral multiplication”, the HCoV-OC43 titers (HCoV-OC43 [2]; [18]) is reported as 1.2 ± 0.2 × 10^6 PFU/mL and the IC50 [1, 17] is reported as 0.0405 mM. For the same compound, the SARS-CoV-2 titers [1] was 7.5 ± 0.2 × 10^4 PFU/mL, the “inhibition of viral multiplication” value (HCoV-229E-GFP [3]; Huh-7, Fig. 3) was “Neither G nor PG inhibited viral multiplication” and the HCoV-229E-GFP titers (HCoV-229E-GFP [3]; [19]) was 3.1 ± 0.2 × 10^6 PFU/mL.
With CCCCCCCCOC(=O)c1cc(O)c(O)c(O)c1 [OG, octyl gallate] the IC50 (HCoV-OC43 [2]; [20]) was 2.56 µM, the HCoV-OC43 titers (HCoV-OC43 [2]; [18]) was 5 ± 0.01 × 10^1 PFU/mL and the IC50 (HCoV-229E-GFP [3]; Huh-7, read-out: IC50, virus yield, specificity experiment (Fig. 3), Huh-7, 24 hpi) was 3.9 µM. For the same compound, the HCoV-229E-GFP titers (HCoV-229E-GFP [3]; [19]) was 1.4 ± 0.5 × 10^3 PFU/mL.
With CCCOC(=O)c1cc(O)c(O)c(O)c1 [PG, propyl gallate] the IC50 (HCoV-OC43 [2]; [20]) was 22.5 µM, the “inhibition of viral multiplication” value (HCoV-OC43 [2]; Huh-7, Fig. 3) was “Neither G nor PG inhibited viral multiplication” and the HCoV-OC43 titers (HCoV-OC43 [2]; [18]) was 1.2 ± 0.3 × 10^6 PFU/mL. For the same compound, the “inhibition of viral multiplication” value (HCoV-229E-GFP [3]; Huh-7, Fig. 3) was “Neither G nor PG inhibited viral multiplication” and the HCoV-229E-GFP titers (HCoV-229E-GFP [3]; [19]) was 2.2 ± 0.3 × 10^6 PFU/mL.
For CCC(CC)COC(=O)[C@H](C)N[P@](=O)(OC[C@H]1O[C@@](C#N)(c2ccc3c(N)ncnn23)[C@H](O)[C@@H]1O)Oc1ccccc1 [RDV, remdesivir], the CC50 (in vitro [4]) was 0.109 mM, the CC50 (in vitro [5]; 24 h cell incubation with AV) was 0.043 mM and the CC50 (in vitro [5]; 48 h cell incubation with AV) was 0.038 mM. For the same compound, the IC50 (HCoV-OC43 [2]; [21]) was 0.046 µM, the “selectivity index (SI=CC50/IC50)” value (HCoV-OC43 [2]; HCoV-OC43, Huh-7) was 435 and the HCoV-OC43 titers (HCoV-OC43 [2]; at RDV 500 nM, 48 hpi, no drug 3.1 ± 0.9 × 10^6, Fig. 1) was 6 ± 0.1 × 10^2 PFU/mL. The CC50 (in vitro [6]) was 0.085 mM, the SARS-CoV-2 titers (SARS-CoV-2 (MAD6); at 8 μM RDV) was 1.7 ± 0.2 × 10^3 PFU/mL and the “average DRI” value (SARS-CoV-2 (MAD6)) was 4.31. The “selectivity index (SI=CC50/IC50)” value ([7]; SARS-CoV-2 omicron, Vero E6) was 52, the IC50 ([7]; Vero E6) was 0.00163 ± 0.0002 mM and the “SARS-CoV-2 isolate 39896362_AG titers” value ([7]; at RDV 32 μM) was 5 ± 0.01 × 10^1 PFU/mL. The HCoV-229E-GFP titers (HCoV-229E-GFP [8]; at 160 nM RDV) was 4 ± 0.2 × 10^2 PFU/mL, the CC50 (in vitro [9]; 24 h cell incubation with AV) was 0.025 mM and the CC50 (in vitro [9]; 48 h cell incubation with AV) was 0.02 mM. The “selectivity index (SI=CC50/IC50)” value ([1]; SARS-CoV-2 Wuhan-Hu-1, Calu3 2B4) was 102, the IC50 ([1]; Severe acute respiratory syndrome coronavirus 2, Calu-3 2B4, Calu3 2B4, Wuhan-Hu-1 strain, AV from 1 h before adsorption, Fig. 1) was 0.00107 mM and the “SARS-CoV-2 isolate MAD6 titers” value ([1]; at RDV 20 μM, Fig. 1) was 6 ± 0.3 × 10^2 PFU/mL. For the same compound, the HCoV-OC43 titers (HCoV-OC43 [10]; at 320 nM RDV) was 1.6 ± 0.2 × 10^4 PFU/mL, the “selectivity index (SI=CC50/IC50)” value (HCoV-229E-GFP [3]) was 1732 and the IC50 (HCoV-229E-GFP [3]; [22]) was 0.0144 ± 0.0041 µM. For the same compound, the HCoV-229E-GFP titers (HCoV-229E-GFP [3]; at RDV 500 nM, 24 hpi, no drug 3 ± 0.5 × 10^6, Fig. 1) was 6 ± 0.1 × 10^2 PFU/mL.
For CCCC(CCC)C(=O)O [VPA, valproic acid], the “direct virucidal effect (change in virus titers)” value (SARS-CoV-2) was “No decrease in virus titers”, the “inhibition of TGEV multiplication” value (TGEV) was “inhibited the multiplication” and the IC50 (HCoV-229E-GFP [11]; read-out: IC50, HCoV-229E-GFP production, AV added 0 hpi) was 9.64 mM. The IC50 (HCoV-229E-GFP [11]; read-out: IC50, HCoV-229E-GFP production, AV added 2 hpi) was 9.49 mM, the IC50 (HCoV-229E-GFP [11]; read-out: IC50, HCoV-229E-GFP production, AV added −3 hpi (1 h before adsorption)) was 9.48 mM and the HCoV-229E-GFP average titers (HCoV-229E-GFP [11]; at 40 mM VPA, average of addition times, no drug 4 ± 0.6 × 10^6) was 6 ± 2 × 10^2 PFU/mL. The CC50 (in vitro [5]; 24 h cell incubation with AV) was 95.7 mM, the CC50 (in vitro [5]; 48 h cell incubation with AV) was 76.2 mM and the IC50 ([12]; Severe acute respiratory syndrome coronavirus 2, AV added 0 hpi) was 5.02 mM. For the same compound, the IC50 ([12]; Severe acute respiratory syndrome coronavirus 2, AV added 2 hpi) was 5.04 mM, the IC50 ([12]; Severe acute respiratory syndrome coronavirus 2, AV added −2 hpi (1 h before adsorption)) was 4.99 mM and the SARS-CoV-2 average titers ([12]; at 100 mM VPA, average of addition times, no drug 3.4 ± 0.2 × 10^5) was 5 ± 0.01 × 10^1 PFU/mL. The IC50 (HCoV-OC43 [2]; [21]) was 9330 ± 2100 µM, the HCoV-OC43 titers (HCoV-OC43 [2]; at VPA 40 mM, 48 hpi, no drug 3.1 ± 0.9 × 10^6, Fig. 1) was 1.2 ± 0.1 × 10^2 PFU/mL and the “direct virucidal effect (change in virus titers)” value (HCoV-229E-GFP [13]) was “No decrease in virus titers”. The SARS-CoV-2 titers (SARS-CoV-2 (MAD6); at 16 mM VPA) was 4 ± 0.1 × 10^4 PFU/mL, the “average DRI” value (SARS-CoV-2 (MAD6)) was 5.19 and the “direct virucidal effect (change in virus titers)” value (HCoV-OC43 [14]) was “No decrease in virus titers”. For the same compound, the IC50 ([15]; average over all tested HCoVs, read-out: average IC50 value) was 7.2 mM, the IC50 ([15]; range over tested HCoVs, read-out: IC50 values, range over HCoVs) was 5 to 9 mM and the IC50 ([7]; Vero E6) was 5.15 ± 0.3 mM. The “SARS-CoV-2 isolate 39896362_AG titers” value ([7]; at VPA 128 mM) was 1 ± 0.1 × 10^2 PFU/mL, the HCoV-229E-GFP titers (HCoV-229E-GFP [8]; at 32 mM VPA) was 5 ± 0.3 × 10^2 PFU/mL and the CC50 (in vitro [9]; 24 h cell incubation with AV) was 70 mM. The CC50 (in vitro [9]; 48 h cell incubation with AV) was 66 mM, the “SARS-CoV-2 isolate MAD6 titers” value ([1]; at VPA 100 mM, Fig. 1) was 5 ± 0.01 × 10^1 PFU/mL and the HCoV-OC43 titers (HCoV-OC43 [10]; at 32 mM VPA) was 5 ± 0.01 × 10^1 PFU/mL. The IC50 (HCoV-229E-GFP [3]; [22]) was 9480 ± 1100 µM, the HCoV-229E-GFP titers (HCoV-229E-GFP [3]; at VPA 40 mM, 24 hpi, no drug 3 ± 0.5 × 10^6, Fig. 1) was 2.5 ± 0.3 × 10^2 PFU/mL and the IC50 (HCoV-OC43 [16]; Betacoronavirus 1, OC43, read-out: IC50, HCoV-OC43 production, AV added 0 hpi) was 9.69 mM. The IC50 (HCoV-OC43 [16]; Betacoronavirus 1, OC43, read-out: IC50, HCoV-OC43 production, AV added 2 hpi) was 9.49 mM, the IC50 (HCoV-OC43 [16]; Betacoronavirus 1, OC43, read-out: IC50, HCoV-OC43 production, AV added −3 hpi (1 h before adsorption)) was 9.87 mM and the HCoV-OC43 average titers (HCoV-OC43 [16]; at 40 mM VPA, average of addition times, no drug 3.5 ± 0.5 × 10^6) was 5 ± 0.01 × 10^1 PFU/mL.

Reference: article PMC10112268, “Inhibition of Human Coronaviruses by Combinations of Host-Targeted and Direct-Acting Antivirals” (Antimicrobial Agents and Chemotherapy, 2023)
